Source: patent US11066368B2, “Process for the preparation and particle size reduction of pirfenidone” (Laurus Labs Limited, priority 2016, dated 2021)

Experiments:
Format in all cases: physicochemical
[1] = Particle size distribution of unmilled input pirfenidone; conditions: input material before wet milling (Reference Example 5)
Procedure: (§1) As used herein, the term “particle size distribution” is expressed in terms of D90, D50 and D10, which corresponds to the diameter of 90 percent by volume of the particles, 50 percent by volume of the particles and 10 percent by volume of the particles are present, respectively.
(§2) The particle size distribution of pirfenidone is measured utilizing: Instrument model: Malvern; Mastersizer 3000; particle refraction index of sample: 1.700; Absorption: 0.01 and Analysis model: general purpose, normal sensitivity, non-spherical particles.
Dissolving crude Pirfenidone (50 g) in ethyl acetate (100 mL) at 65-75° C. and the reaction mass was treated with activated carbon (5 g) and filtered through a short bed of Hyflo. The filtrate was partially concentrated, under reduced pressure while maintain temperature below 60° C. The mixture was gradually allowed to cool to 30±5° C. and then stirred for another 30-60 min. The suspension was again allowed to cool to 0-5° C. and maintained for another 2-3 h, at the same temperature. The precipitated material was filtered and then dried at 60±5° C., for 6-8 h, to afford Pirfenidone as white colored powder (HPLC purity 99.9%; dimer content 0.03%). Yield: 45 g.

[2] = Particle size distribution after wet milling in colloid mill (IKA MK 2000/05); conditions: water
Procedure: as §1, §2
Pirfenidone (Particle size distribution: D10: 1330 μm; D50: 1950 μm and D90: 2840 μm) and Water (3 vol) were charged into IKA colloid mill at 25° C. to 35° C. and circulated the reaction mass at 25° C. to 35° C. till required particle size was obtained. Particle size distribution of the sample with different time interval was monitored by collecting the sample from reaction mass. After achieving the required particle size, stirred the reaction mixture for 30-60 min at 25° C. to 35° C. Further, the reaction mixture temperature was allowed to cool to 0° C. to 5° C. and stirred for 2-3 hrs at same temperature. Filter the solid and washed with the wet cake with chilled water (0.5 vol), dried the solid in an oven under vacuum at 60° C. for 4-6 hours.
The following examples were performed using the above described process with different circulation time and different rpm and obtained results are tabulated as below: […]

[3] = Minimum ignition energy test by MIKE3; conditions: dust cloud, dried at 50° C., sieved through 63μ
Procedure: This test was performed based on international test method VDI 2263 part 1.2.5 using MIKE3. Pirfenidone was dried at 50° C. under vacuum, sieved through 63μ sieve. The product was converted into a dust cloud in glass cylindrical tube with compressed air. The spark for ignition was provided with moving electrodes assembly at different energy levels from 1 mJ to 1000 mJ. The energy just sufficient to ignite the dust under ignition was determined. This ignition energy was then successively halved with variation of the dust concentration and the ignition delay time in a series of tests until no ignition takes place in at least 10 successive experiments. The minimum ignition energy MIE lies between the lowest energy value at which ignition occurred and at the energy value at which no ignition observed for 10 successive experiments. The recommendations for interpreting MIE results are based on energy levels available on MIKE 3 apparatus. According to usual practice, MIE can be ranked as follow: […]

[4] = 3000 rpm, circulation time 60 mim
[5] = 3000 rpm, circulation time 120 mim
[6] = 3000 rpm, circulation time 30 min
[7] = 5000 rpm, circulation time 5 min
[8] = 5000 rpm, circulation time 60 min
[9] = 6000 rpm, circulation time 45 min
[10] = 6000 rpm, circulation time 1 hour
[11] = 6000 rpm, circulation time 2 hours, listed as 1A, 20 kg pirfenidone input
[12] = 6000 rpm, circulation time 2 hours, listed as 1B, 200 kg pirfenidone input
[13] = 6000 rpm, circulation time 3 hours, listed as 1A, 20 kg pirfenidone input
[14] = 6000 rpm, circulation time 3 hours, listed as 1B, 200 kg pirfenidone input
[15] = 6000 rpm, circulation time 4 hours, listed as 1A, 20 kg pirfenidone input
[16] = 6000 rpm, circulation time 4 hours, listed as 1B, 200 kg pirfenidone input
[17] = 6000 rpm, circulation time 5 hours, listed as 1A, 20 kg pirfenidone input
[18] = 6000 rpm, circulation time 5 hours, listed as 1B, 200 kg pirfenidone input
[19] = 6000 rpm, circulation time 6 hours, listed as 1A, 20 kg pirfenidone input
[20] = 6000 rpm, circulation time 6 hours, listed as 1B, 200 kg pirfenidone input
[21] = 6000 rpm, circulation time 7 hours
[22] = 6000 rpm, circulation time 8 hours, listed as 1B, 200 kg pirfenidone input
[23] = 6000 rpm, circulation time 8 hours, listed as 1C, 80 kg pirfenidone input
[24] = 6000 rpm, circulation time 9 hours
[25] = 6000 rpm, circulation time 10 hours, listed as 1B, 200 kg pirfenidone input
[26] = 6000 rpm, circulation time 10 hours, listed as 1C, 80 kg pirfenidone input
[27] = 6000 rpm, circulation time 12 hours, listed as 1B, 200 kg pirfenidone input
[28] = 6000 rpm, circulation time 12 hours, listed as 1C, 80 kg pirfenidone input
[29] = 6000 rpm, circulation time 14 hours
[30] = 6000 rpm, circulation time 16 hours
[31] = 6000 rpm, circulation time 19 hours
[32] = 8000 rpm, circulation time 5 min

Particle size distribution D10 [1]: 1330 μm
Particle size distribution D50 [1]: 1950 μm
Particle size distribution D90 [1]: 2840 μm
PSD D10 [2, 4]: 12 μm
PSD D50 [2, 4]: 33 μm
PSD D90 [2, 4]: 123 μm
PSD D10 [2, 5]: 13 μm
PSD D50 [2, 5]: 33 μm
PSD D90 [2, 5]: 82 μm
PSD D10 [2, 6]: 28 μm
PSD D50 [2, 6]: 87 μm
PSD D90 [2, 6]: 185 μm
PSD D10 [2, 7]: 11 μm
PSD D50 [2, 7]: 40 μm
PSD D90 [2, 7]: 99 μm
PSD D10 [2, 8]: 11 μm
PSD D50 [2, 8]: 36 μm
PSD D90 [2, 8]: 89 μm
PSD D10 [2, 9]: 41 μm
PSD D50 [2, 9]: 48 μm
PSD D90 [2, 9]: 285 μm
PSD D10 [2, 10]: 30 μm
PSD D50 [2, 10]: 105 μm
PSD D90 [2, 10]: 206 μm
PSD D10 [2, 11]: 28 μm
PSD D50 [2, 11]: 72 μm
PSD D90 [2, 11]: 165 μm
PSD D10 [2, 12]: 34 μm
PSD D50 [2, 12]: 124 μm
PSD D90 [2, 12]: 257 μm
PSD D10 [2, 13]: 26 μm
PSD D50 [2, 13]: 61 μm
PSD D90 [2, 13]: 143 μm
PSD D10 [2, 14]: 34 μm
PSD D50 [2, 14]: 116 μm
PSD D90 [2, 14]: 236 μm
PSD D10 [2, 15]: 23 μm
PSD D50 [2, 15]: 54 μm
PSD D90 [2, 15]: 129 μm
PSD D10 [2, 16]: 32 μm
PSD D50 [2, 16]: 106 μm
PSD D90 [2, 16]: 222 μm
PSD D10 [2, 17]: 22 μm
PSD D50 [2, 17]: 53 μm
PSD D90 [2, 17]: 117 μm
PSD D10 [2, 18]: 33 μm
PSD D50 [2, 18]: 106 μm
PSD D90 [2, 18]: 217 μm
PSD D10 [2, 19]: 21 μm
PSD D50 [2, 19]: 49 μm
PSD D90 [2, 19]: 107 μm
PSD D10 [2, 20]: 29 μm
PSD D50 [2, 20]: 101 μm
PSD D90 [2, 20]: 200 μm
PSD D10 [2, 21]: 31 μm
PSD D50 [2, 21]: 94 μm
PSD D90 [2, 21]: 200 μm
PSD D10 [2, 22]: 28 μm
PSD D50 [2, 22]: 84 μm
PSD D90 [2, 22]: 187 μm
PSD D10 [2, 23]: 21 μm
PSD D50 [2, 23]: 57 μm
PSD D90 [2, 23]: 132 μm
PSD D10 [2, 24]: 28 μm
PSD D50 [2, 24]: 80 μm
PSD D90 [2, 24]: 180 μm
PSD D10 [2, 25]: 27 μm
PSD D50 [2, 25]: 69 μm
PSD D90 [2, 25]: 155 μm
PSD D10 [2, 26]: 22 μm
PSD D50 [2, 26]: 55 μm
PSD D90 [2, 26]: 122 μm
PSD D10 [2, 27]: 25 μm
PSD D50 [2, 27]: 61 μm
PSD D90 [2, 27]: 150 μm
PSD D10 [2, 28]: 22 μm
PSD D50 [2, 28]: 54 μm
PSD D90 [2, 28]: 121 μm
PSD D10 [2, 29]: 21 μm
PSD D50 [2, 29]: 47 μm
PSD D90 [2, 29]: 98 μm
PSD D10 [2, 30]: 21 μm
PSD D50 [2, 30]: 47 μm
PSD D90 [2, 30]: 96 μm
PSD D10 [2, 31]: 22 μm
PSD D50 [2, 31]: 46 μm
PSD D90 [2, 31]: 93 μm
PSD D10 [2, 32]: 9 μm
PSD D50 [2, 32]: 35 μm
PSD D90 [2, 32]: 85 μm
Es [3]: 1.7 mJ
Minimum ignition energy MIE [3]: 1.7 mJ
SMILES: Cc1ccc(=O)n(-c2ccccc2)c1 [Pirfenidone, 5-methyl-1-phenyl-2-1(H)-pyridone]
